Measured values published in patent publication US6117661A, “Mutant mono-oxygenase cytochrome P450cam” (BG plc, priority 1995, dated 2000).

Columns and labels:
[1] = molecular target: T1, Wild type P450cam (Pseudomonas putida, UniProt P00183); type: binding, P. putida; conditions: for haem spin-state conversion on substrate binding: Soret band 418 nm to 392 nm; for Wild type ΔSpin high/low: -- = no shift, nd = not determined
[2] = molecular target: T1, Wild type P450cam; experiment: Turnover rate measured as NADH consumption rate; type: biochemical, P. putida; conditions: small alkanes; background about 0.07
Description: (§1) A buffered solution (50 mM Tris.HCI, pH 7.4), typically 3 ml in volume, containing 10 uM putidaredoxin, 2 uM putidaredoxin reductase, 1 uM cytochrome P-450cam mono-oxygenase (wild-type or mutant), 200 mM KCI, 50 ug/ml bovine liver catalase (Sigma), and 1 mM target organic compound such as cyclohexylbenzene (added as a 0.1 M stock in ethanol) was preincubated at 30° C. for 5 minutes. The enzymatic reaction was initiated by adding NADH to a total concentration of 2 mM. Further four aliquots of NADH (to increase the NADH concentration by 1 mM each time) were added in intervals of 10 minutes, and 30 minutes into the incubation one aliquot of substrate (to increase the concentration by 1 mM) was also added. The reaction was quenched after 60 minutes by adding 0.5 ml chloroform and vortexing the mixture. The phases were separated by centrifugation (4000 g) at 4° C. The chloroform layer was analyzed by gas chromatography.
(§2) The NADH concentration can be monitored at 340 nm and, in all cases, more substrates and NADH are added during the incubation.
(§3) Turnover rate measured as NADH consumption rate
(§4) (nmole NADH/nmole P450cam/s).

[3] = molecular target: T2, P450cam Y96A (also contains the C334A mutation) (Pseudomonas putida, UniProt P00183, C335A/Y97A); type: biochemical, P. putida; conditions: small alkanes
T2 construct: reconstituted with putidaredoxin and putidaredoxin reductase
Description: as §1, §2, §3, §4

[4] = molecular target: T3, P450cam active site mutant Y96A (also C334A) (Pseudomonas putida, UniProt P00183, C335A/Y97A); type: biochemical, P. putida; conditions: substrate hexane; label = product
T3 construct: reconstituted with putidaredoxin and putidaredoxin reductase
Description: as §1
(§5) For many substrate compounds such as cyclohexylbenzene for which not all the P-450cam-mediated oxidation products are commercially available, the chloroform extracts are evaporated to dryness under a stream of nitrogen. The residues were extracted with hexane and the oxidation products separated by high performance liquid chromatography, eluting with a hexane/isopropanol gradient. The purified products were then identified by mass spectroscopy and particularly nuclear magnetic resonance spectroscopy.
as §2

[5] = molecular target: T4, P450cam active site mutant Y96F (also C334A) (Pseudomonas putida, UniProt P00183, C335A/Y97F); type: biochemical, P. putida; conditions: substrate hexane; label = product
T4 construct: reconstituted with putidaredoxin and putidaredoxin reductase
Description: as §1, §5, §2

[6] = molecular target: P450cam Mutant Y96A (Pseudomonas putida, UniProt P00183, C335A/Y97A); type: binding, P. putida; conditions: for Mutant Y96A ΔSpin high/low: -- = no shift, nd = not determined

| Structure (SMILES) | Wild type Vs DTT [1] | Mutant Y96A Vs DTT [6] | Mutant Y96A ΔSpin high/low [6] | also measured |
| --- | --- | --- | --- | --- |
| C1CC2CCC1C2 [norbornane, reference compound] | – | – | – | haem spin-state conversion on substrate binding [1]: fully converted the haem to the 5-co-ordinated, high-spin form |
| CCCC(C)(C)C [2,2-dimethyl pentane] | – | – | – | Turnover rate (NADH consumption rate) Wild type [2]: 5.2 nmole NADH/nmole P450cam/s; Turnover rate (NADH consumption rate) Y96A [3]: 12.8 nmole NADH/nmole P450cam/s |
| O=C(Oc1ccccc1)c1ccccc1 [Phenylbenzoate] | 5 | – | – | – |
| CCCC(=O)CC [3-hexanone] | – | – | – | Products(%) Y96A [4]: 28%; Products(%) Y96F [5]: 16% |
| CCC(=O)Oc1cccc2ccccc12 [1-Naphthylpropionate] | 20 | 20 | 0 | – |
| CC1(C)[C@@H]2CC[C@@]1(C)C(=O)C2=O [(1R)-(-)-Camphorquinone] | 80 | 80 | 80 | Wild type ΔSpin high/low [1]: 80 |
| C1C2CC3CC1CC(C2)C3 [adamantane, reference compound] | – | – | – | haem spin-state conversion on substrate binding [1]: fully converted the haem to the 5-co-ordinated, high-spin form |
| CC(C)CCCC(C)CCCC(C)CCCCC(C)CCCC(C)CCCC(C)C (stereo not shown) [Squalane] | – | 20 | – | – |
| CCCC(O)CC (stereo not shown) [3-hexanol] | – | – | – | Products(%) Y96A [4]: 32%; Products(%) Y96F [5]: 50% |
| C1=CCCCC1 [Cyclohexene] | 5 | 40 | 40 | – |
| CCCCC(C)O (stereo not shown) [2-hexanol] | – | – | – | Products(%) Y96A [4]: 26%; Products(%) Y96F [5]: 24% |
| CCC(C)CC [3-methyl pentane] | – | – | – | Turnover rate (NADH consumption rate) Wild type [2]: 1.3 nmole NADH/nmole P450cam/s; Turnover rate (NADH consumption rate) Y96A [3]: 14.2 nmole NADH/nmole P450cam/s |
| C1CCCCCC1 [cycloheptane] | – | – | – | Turnover rate (NADH consumption rate) Wild type [2]: 4.4 nmole NADH/nmole P450cam/s; Turnover rate (NADH consumption rate) Y96A [3]: 42.5 nmole NADH/nmole P450cam/s |
| O=C1c2ccccc2Cc2ccccc21 [Anthrone] | 5 | 5 | – | – |
| Cc1ccccc1 [Toluene] | – | 30 | 30 | – |
| c1ccc(CNc2ccccc2)cc1 [N-Phenylbenzylamine] | 5 | – | 45 | – |
| CCCC(C)C [2-methyl pentane] | – | – | – | Turnover rate (NADH consumption rate) Wild type [2]: 3.8 nmole NADH/nmole P450cam/s; Turnover rate (NADH consumption rate) Y96A [3]: 11.7 nmole NADH/nmole P450cam/s |
| C1CC[C@H]2CCCC[C@@H]2C1 [trans-Decahydro naphthalene] | 10 | 70 | 90 | Wild type ΔSpin high/low [1]: 20 |
| c1ccc2c(c1)CCCC2 [1,2,3,4-Tetrahydro naphthalene] | 10 | 40 | 40 | Wild type ΔSpin high/low [1]: 5 |
| O=C1c2ccccc2-c2ccccc21 [9-Fluorenone] | 20 | 5 | – | – |
| C=C(C)[C@H]1CC=C(C)C(=O)C1 [(S)-(+)-Carvone] | 60 | 80 | 10 | Wild type ΔSpin high/low [1]: 10 |
| c1ccc(CCc2ccccc2)cc1 [Bibenzyl] | – | 55 | 55 | – |
| CCCCCCCCCCCC [n-Dodecane] | – | 5 | 5 | – |
| CC(C)CC(C)(C)C [2,2,4-trimethyl pentane] | – | – | – | Turnover rate (NADH consumption rate) Wild type [2]: 0.9 nmole NADH/nmole P450cam/s; Turnover rate (NADH consumption rate) Y96A [3]: 5.3 nmole NADH/nmole P450cam/s |
| CC1(C)C(=O)[C@]2(C)CC[C@H]1C2 [(1R)-(-)-Fenchone] | 70 | 80 | 50 | Wild type ΔSpin high/low [1]: 40 |
| c1ccc(Oc2ccccc2)cc1 [Diphenylether] | 5 | 50 | 20 | Wild type ΔSpin high/low [1]: 10 |
| CCCCCC(C)C [2-methyl heptane] | – | – | – | Turnover rate (NADH consumption rate) Wild type [2]: background; Turnover rate (NADH consumption rate) Y96A [3]: 2.1 nmole NADH/nmole P450cam/s |
| CCCC(=O)Oc1cccc2ccccc12 [1-Naphthylbutyrate] | 5 | 5 | – | – |
| c1ccc(-c2ccccc2)cc1 [Biphenyl] | 20 | 90 | – | – |
| CCCCCCCCCCC [n-Undecane] | – | 20 | 20 | – |
